Patent US8703796B2, “3H-imidazo [4, 5-B] pyridine-6-carboxamides as anti-inflammatory agents” (Boehringer Ingelheim International GmbH, priority 2008, dated 2014)

biological target: T1, recombinant human mPGES-1 (Homo sapiens, UniProt O14684); assay: mPGES-1 inhibition, HTRF detection of PGE2; type: biochemical
T1 construct: made in house; host or cells: Rosetta E. coli (microsomal/membrane fraction)
T1 sequence (O14684 1-152): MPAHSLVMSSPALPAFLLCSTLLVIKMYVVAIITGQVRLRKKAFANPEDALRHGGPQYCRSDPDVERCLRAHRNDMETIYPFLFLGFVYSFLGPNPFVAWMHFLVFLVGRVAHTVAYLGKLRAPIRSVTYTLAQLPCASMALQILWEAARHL
In short: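 Microsomes from E. coli expressing recombinant human mPGES-1 in 0.1 M KPi pH 7.4 with 2.5 mM GSH were preincubated with inhibitor 25 min at room temperature. PGH2 was then added, and the reaction was stopped after 1 min with acidified FeCl2. PGE2 was quantified by HTRF (665/620 nm ratio) against a synthetic PGE2 standard curve.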

inhibition at 10 µM [%]	inhibition at 1 µM [%]	Structure (SMILES)
98	–	O=C(Nc1ccc(Br)cc1)c1cc2nc(Nc3c(Cl)cncc3Cl)[nH]c2nc1OCC(F)F [Example 804, 2-(3,5-Dichloro-pyridin-4-ylamino)-5-(2,2-difluoro-ethoxy)-N-(4-bromo-phenyl)-3H-imidazo[4,5-b]pyridine-6-carboxamide]
100	–	CCC1CCC(NC(=O)c2cnc3c(c2)nc(Nc2c(Cl)cccc2Cl)n3C)CC1 (stereo not shown) [Example 438, 2-(2,6-Dichlorophenylamino)-N-(4-ethylcyclohexyl)-3-methyl-3H-imidazo[4,5-b]pyridine-6-carboxamide]
100	–	Cn1c(Nc2c(Cl)cncc2Cl)nc2cc(C(=O)Nc3ccc(Br)cc3)c(OCCF)nc21 [Example 832, 2-(3,5-Dichloro-pyridin-4-ylamino)-5-(2-fluoro-ethoxy)-N-(4-bromo-phenyl)-3-methyl-3H-imidazo[4,5-b]pyridine-6-carboxamide]
98	–	Cn1c(Nc2c(Cl)cccc2Cl)nc2cc(C(=O)NCc3ccccc3C(F)(F)F)cnc21 [Example 468, 2-(2,6-Dichlorophenylamino)-3-methyl-N-(2-trifluoromethyl-benzyl)-3H-imidazo[4,5-b]pyridine-6-carboxamide]
100	–	COCCOc1nc2[nH]c(Nc3c(Cl)cncc3Cl)nc2cc1C(=O)N[C@H]1CC[C@H](C(F)(F)F)CC1 [Example 866, 2-(3,5-Dichloro-pyridin-4-ylamino)-5-(2-methoxy-ethoxy)-N-(trans-4-trifluoromethyl-cyclohexyl)-3H-imidazo[4,5-b]pyridine-6-carboxamide]
97	–	Cn1c(Nc2c(Cl)cc(F)cc2Cl)nc2cc(C(=O)Nc3ccc(Br)cc3)c(OCC(F)(F)F)nc21 [Example 816, 2-(2,6-Dichloro-4-fluoro-phenylamino)-5-(2,2,2-trifluoro-ethoxy)-N-(4-bromo-phenyl)-3-methyl-3H-imidazo[4,5-b]pyridine-6-carboxamide]
96	–	O=C(N[C@H]1CC[C@H](C(F)(F)F)CC1)c1cc2nc(Nc3c(Cl)ccc(Cl)c3F)[nH]c2nc1OCC(F)F [Example 796, 2-(3,6-Dichloro-2-fluoro-phenylamino)-5-(2,2-difluoro-ethoxy)-N-(trans-4-trifluoromethyl-cyclohexyl)-3H-imidazo[4,5-b]pyridine-6-carboxamide]
99	–	CCOc1nc2[nH]c(Nc3c(Cl)cncc3Cl)nc2cc1C(=O)Nc1cc(C(F)(F)F)ccn1 [Example 845, 2-(3,5-Dichloro-pyridin-4-ylamino)-5-ethoxy-N-(4-trifluoromethyl-pyridin-2-yl)-3H-imidazo[4,5-b]pyridine-6-carboxamide]
100	–	Cn1c(Nc2c(F)cccc2Cl)nc2cc(C(=O)N[C@H]3CC[C@H](C(F)(F)F)CC3)c(OCC(F)F)nc21 [Example 783, 2-(2-Chloro-6-fluoro-phenylamino)-5-(2,2-difluoro-ethoxy)-N-(trans-4-trifluoromethyl-cyclohexyl)-3-methyl-3H-imidazo[4,5-b]pyridine-6-carboxamide]
95	–	Cn1c(Nc2c(Cl)cncc2Cl)nc2cc(C(=O)NCc3ncccc3C(F)(F)F)c(OCCF)nc21 [Example 835, 2-(3,5-Dichloro-pyridin-4-ylamino)-5-(2-fluoro-ethoxy)-N-((3-trifluoromethyl-pyridin-2-yl)-methyl)-3-methyl-3H-imidazo[4,5-b]pyridine-6-carboxamide]
82	–	Cn1c(Nc2c(Cl)cc(F)cc2Cl)nc2cc(C(=O)N[C@H]3CC[C@H](C(F)(F)F)CC3)c(OCC(F)F)nc21 [Example 863, 2-(2,6-Dichloro-4-fluoro-phenylamino)-5-(2,2-difluoro-ethoxy)-N-(trans-4-trifluoromethyl-cyclohexyl)-3-methyl-3H-imidazo[4,5-b]pyridine-6-carboxamide]
97	–	O=C(NCc1ccccc1C(F)(F)F)c1cc2nc(Nc3c(Cl)cncc3Cl)[nH]c2nc1OC1CCOC1 (stereo not shown) [Example 790, 2-(3,5-Dichloro-pyridin-4-ylamino)-5-(tetrahydrofuran-3-yl-oxy)-N-((2-trifluoromethyl-phenyl)-methyl)-3H-imidazo[4,5-b]pyridine-6-carboxamide]
–	98	O=C(N[C@H]1CC[C@H](C(F)(F)F)CC1)c1cc2nc(Nc3c(Cl)cccc3C(F)(F)F)[nH]c2nc1OCC(F)F [Example 778, 2-(2-Chloro-6-trifluoromethyl-phenylamino)-5-(2,2-difluoro-ethoxy)-N-(trans-4-trifluoromethyl-cyclohexyl)-3H-imidazo[4,5-b]pyridine-6-carboxamide]
99	–	O=C(Nc1cc(C(F)(F)F)ccn1)c1cc2nc(Nc3c(Cl)cncc3Cl)[nH]c2nc1OCC(F)(F)F [Example 857, 2-(3,5-Dichloro-pyridin-4-ylamino)-5-(2,2,2-trifluoro-ethoxy)-N-(4-trifluoromethyl-pyridin-2-yl)-3H-imidazo[4,5-b]pyridine-6-carboxamide]
99	–	O=C(N[C@H]1CC[C@H](C(F)(F)F)CC1)c1cc2nc(Nc3cnccc3C(F)(F)F)[nH]c2nc1OCC(F)F [Example 799, 2-(4-Trifluoromethyl-pyridin-3-ylamino)-5-(2,2-difluoro-ethoxy)-N-(trans-4-trifluoromethyl-cyclohexyl)-3H-imidazo[4,5-b]pyridine-6-carboxamide]
92	–	CCOc1nc2[nH]c(Nc3c(Cl)cncc3Cl)nc2cc1C(=O)N[C@H]1CC[C@H](C(F)(F)F)CC1 [Example 842, 2-(3,5-Dichloro-pyridin-4-ylamino)-5-ethoxy-N-(trans-4-trifluoromethyl-cyclohexyl)-3H-imidazo[4,5-b]pyridine-6-carboxamide]
100	–	O=C(N[C@H]1CC[C@H](C(F)(F)F)CC1)c1cc2nc(Nc3c(F)cccc3Cl)[nH]c2nc1OCC(F)F [Example 785, 2-(2-Chloro-6-fluoro-phenylamino)-5-(2,2-difluoro-ethoxy)-N-(trans-4-trifluoromethyl-cyclohexyl)-3H-imidazo[4,5-b]pyridine-6-carboxamide]
–	98	Cn1c(Nc2c(Cl)cccc2C(F)(F)F)nc2cc(C(=O)N[C@H]3CC[C@H](C(F)(F)F)CC3)c(OCC(F)F)nc21 [Example 777, 2-(2-Chloro-6-trifluoromethyl-phenylamino)-5-(2,2-difluoro-ethoxy)-N-(trans-4-trifluoromethyl-cyclohexyl)-3-methyl-3H-imidazo[4,5-b]pyridine-6-carboxamide]
–	96	Cn1c(Nc2c(Cl)cnc(Cl)c2Cl)nc2cc(C(=O)N[C@H]3CC[C@H](C(F)(F)F)CC3)c(OCC(F)F)nc21 [Example 779, 2-(2,3,5-Trichloro-pyridin-4-yl-amino)-5-(2,2-difluoro-ethoxy)-N-(trans-4-trifluoromethyl-cyclohexyl)-3-methyl-3H-imidazo[4,5-b]pyridine-6-carboxamide]
